Source: patent publication US4357344A, “Polybutylbenzylphenols and benzyl-3,4-methylenedioxybenzenes in insect population control” (The United States of America as represented by the …, priority 1979, dated 1982)

What was measured:
Type in all cases: in vivo
[1] = test system: early fourth-stage larvae of the common malaria mosquito (Anopheles quadrimaculatus); assay: Growth-inhibition tests on mosquito larvae; conditions: in water; corrected by Abbott's formula
Protocol: The compound to be tested was added to one liter of water until the final concentration thereof was a growth-inhibiting amount. Fifty early fourth-stage larvae of the common malaria mosquito (Anopheles quadrimaculatus) were placed on this water. Larval food was administered daily. Dead larvae and pupae were removed, counted, and discarded daily. Live pupae were removed, rinsed, and transferred to a cup of distilled water. The cup was placed in an emergence cage, and the emerging adults, if any, were maintained on a sugar-water diet.
The effectiveness of the compound in inhibiting growth was determined by adding the number of dead larvae and pupae and the number of adults that were dead, unable to complete eclosion, and malformed. This sum was corrected by Abbott's formula (to adjust for the number of larvae or pupae which would die naturally) and designated as the GI (growth inhibition). The results are expressed as GI-90, i.e., the concentration of growth inhibitor in ppm that would prevent and/or retard growth in 90% of the treated larvae.

flies (family Muscidae) [2] = assay: Oviposition inhibition tests (treated fly food; Examples 6-9)
Protocol: The compound to be tested was administered in a standard fly food containing 6 parts of sugar, 6 parts of powdered non-fat dry milk, and 1 part of powdered egg yolk. Treated food was prepared by mixing an appropriate amount of a solution or suspension of CBCP in acetone with a batch of the food. The acetone was evaporated (4-6 hours) and the dry material was repulverized. Oviposition inhibition tests: Samples of treated food with a container of water were placed in cages containing 100 newly-emerged adult flies (family Muscidae). After the flies had been exposed to the treated diet for 6-7 days, 1/2 inch of moist standard fly larva-rearing medium (CSMA) in souffle cups was placed in the cages for oviposition. After 4-6 hours, the cup was removed and examined for eggs. […] The procedure outlined in Example 6 was followed using a Group II compound. The procedure outlined in Example 6 was followed using Group III compounds. The results are summarized below: The procedure outlined in Example 6 was followed substituting a Group IV compound for those of Group I. The table below provides a summary of results.

flies (family Muscidae) [3] = assay: Chemosterilancy tests (egg hatch and pupal development; Examples 6-9)
Protocol: The compound to be tested was administered in a standard fly food containing 6 parts of sugar, 6 parts of powdered non-fat dry milk, and 1 part of powdered egg yolk. Treated food was prepared by mixing an appropriate amount of a solution or suspension of CBCP in acetone with a batch of the food. The acetone was evaporated (4-6 hours) and the dry material was repulverized.
Chemosterilancy tests: If eggs were laid in the above tests, the cups were filled with water and stirred to break up the egg masses. A random sample of 100 eggs from each cup was collected and placed on a small piece of black cloth which was then laid on top of moist larva-rearing medium in a rearing container. Observations were made to determine percentage of egg hatch and pupal development.
The procedure outlined in Example 6 was followed using a Group II compound.
The procedure outlined in Example 6 was followed using Group III compounds. The results are summarized below:
The procedure outlined in Example 6 was followed substituting a Group IV compound for those of Group I. The table below provides a summary of results.

| Structure (SMILES) | GI-90 (concentration of growth inhibitor that would prevent and/or retard growth in 90% of the treated larvae) [1] [ppm] | Mortality, parent generation (flies (family Muscidae) [2]; 0.05% in food) [%] | Mortality, parent generation (flies (family Muscidae) [2]; 0.1% in food) [%] | Mortality, parent generation (flies (family Muscidae) [2]; 0.25% in food) [%] | Egg hatch (flies (family Muscidae) [3]; 0.05% in food) [%] | Pupal development (flies (family Muscidae) [3]; 0.05% in food) [%] | Egg hatch (flies (family Muscidae) [3]; 0.1% in food) [%] | Pupal development (flies (family Muscidae) [3]; 0.1% in food) [%] | Egg hatch (flies (family Muscidae) [3]; 0.25% in food) [%] | Pupal development (flies (family Muscidae) [3]; 0.25% in food) [%] | Mortality, parent generation (flies (family Muscidae) [2]; 0.5% in food) [%] | further results |
| --- | --- | --- | --- | --- | --- | --- | --- | --- | --- | --- | --- | --- |
| CCCCCOc1cc2c(cc1C(C)c1ccccc1)OCO2 (stereo not drawn) [W, (α-Methylbenzyl)-3,4-methylenedioxy-6-n-pentoxybenzene] | 0.2 | – | – | – | – | – | – | – | – | – | – | – |
| CCCCCOc1cc2c(cc1Cc1ccc(OC)cc1)OCO2 [R] | – | 0 | 0 | 0 | 76 | 76 | 31 | 31 | 0 | 0 | – | – |
| COc1ccc(Cc2cc3c(cc2OC)OCO3)cc1 [L, (4-Methoxybenzyl)-3,4-methylenedioxy-6-methoxybenzene] | – | 0 | 0 | 60 | 0 | 0 | 0 | 0 | – | – | – | Mortality, parent generation (flies (family Muscidae) [2]; 0.01% in food): 0%; Egg hatch (flies (family Muscidae) [3]; 0.01% in food): 91%; Pupal development (flies (family Muscidae) [3]; 0.01% in food): 91% |
| COc1ccc(Cc2ccc3c(c2)OCO3)c(OC)c1 [LL, (2,4-Dimethoxybenzyl)-3,4-methylenedioxybenzene] | 0.2 | – | 0 | 60 | – | – | 76 | 76 | – | – | – | – |
| CCCCOc1cc2c(cc1C(C)c1ccccc1)OCO2 (stereo not drawn) [V, (α-Methylbenzyl)-3,4-methylenedioxy-6-n-butoxybenzene] | 0.097 | – | – | – | – | – | – | – | – | – | 0 | Egg hatch (flies (family Muscidae) [3]; 0.5% in food): 34%; Pupal development (flies (family Muscidae) [3]; 0.5% in food): 34% |
| COc1ccc(Cc2cc3c(cc2OCC(C)C)OCO3)cc1 [Q, (4-Methoxybenzyl)-3,4-methylenedioxy-6-iso-butoxybenzene] | 0.082 | 0 | 0 | 0 | 28 | 28 | 0 | 0 | 0 | 0 | 90 | – |
| COc1ccc(Cc2cc3c(cc2OCCC(C)C)OCO3)cc1 [S, (4-Methoxybenzyl)-3,4-methylenedioxy-6-iso-pentoxybenzene] | 0.036 | 0 | 0 | 0 | 55 | 55 | 6 | 6 | 0 | 0 | 0 | Egg hatch (flies (family Muscidae) [3]; 0.5% in food): 0%; Pupal development (flies (family Muscidae) [3]; 0.5% in food): 0% |
| CCCc1cc2c(cc1Cc1ccc(OC)cc1)OCO2 [DD, (4-Methoxybenzyl)-3,4-methylenedioxy-6-n-propylbenzene] | 0.2 | 0 | 0 | 0 | 0 | 0 | 0 | 0 | – | – | – | Mortality, parent generation (flies (family Muscidae) [2]; 0.025% in food): 0%; Egg hatch (flies (family Muscidae) [3]; 0.025% in food): 7%; Pupal development (flies (family Muscidae) [3]; 0.025% in food): 7% |
| COc1ccc(C(C)c2cc3c(cc2OC)OCO3)cc1 (stereo not drawn) [H, (α-Methyl-4-methoxybenzyl)-3,4-methylenedioxy-6-methoxybenzene] | 0.5 | – | – | – | – | – | – | – | – | – | – | Mortality, parent generation (flies (family Muscidae) [2]; 0.01% in food): 0%; Mortality, parent generation (flies (family Muscidae) [2]; 0.025% in food): 0%; Egg hatch (flies (family Muscidae) [3]; 0.01% in food): 14%; Pupal development (flies (family Muscidae) [3]; 0.01% in food): 14%; Egg hatch (flies (family Muscidae) [3]; 0.025% in food): 45%; Pupal development (flies (family Muscidae) [3]; 0.025% in food): 45% |
| CCCCCOc1cc2c(cc1C(C)c1ccc(OC)cc1)OCO2 (stereo not drawn) [K, (α-methyl-4-methoxybenzyl)-3,4-methylenedioxy-6-n-pentoxybenzene] | 0.060 | – | 0 | 0 | – | – | 70 | 70 | 0 | 0 | 0 | Mortality, parent generation (flies (family Muscidae) [2]; 1.0% in food): 0%; Egg hatch (flies (family Muscidae) [3]; 0.5% in food): 0%; Pupal development (flies (family Muscidae) [3]; 0.5% in food): 0%; Egg hatch (flies (family Muscidae) [3]; 1.0% in food): 0%; Pupal development (flies (family Muscidae) [3]; 1.0% in food): 0% |
| CCCCOc1cc2c(cc1C(C)c1ccc(OC)cc1)OCO2 (stereo not drawn) [J, (α-methyl-4-methoxybenzyl)-3,4-methylenedioxy-6-n-butoxybenzene] | 0.025 | 0 | – | – | 3 | 3 | – | – | – | – | – | Mortality, parent generation (flies (family Muscidae) [2]; 0.01% in food): 0%; Mortality, parent generation (flies (family Muscidae) [2]; 0.025% in food): 0%; Egg hatch (flies (family Muscidae) [3]; 0.025% in food): 61%; Pupal development (flies (family Muscidae) [3]; 0.025% in food): 61% |
| COc1ccc(Cc2cc3c(cc2OC(C)C)OCO3)cc1 [O, (4-Methoxybenzyl)-3,4-methylenedioxy-6-iso-propoxybenzene] | 0.8 | 0 | – | 0 | 48 | 48 | – | – | 0 | 0 | 80 | – |
| CCOc1c(C)cc(Cc2ccc3c(c2)OCO3)cc1C [KK] | 0.9 | – | – | 0 | – | – | – | – | 85 | 85 | 85 | – |
| CCOc1cc2c(cc1Cc1ccc3c(c1)OCO3)OCO2 [NN, (3,4-methylenedioxy-6-ethoxybenzyl)-3,4-methylenedioxybenzene] | – | 0 | 0 | – | 2 | 2 | 0 | 0 | – | – | – | – |
| COc1ccc(Cc2ccc3c(c2)OCO3)cc1C [HH, (3-Methyl-4-methoxybenzyl)-3,4-methylenedioxybenzene] | – | – | 0 | 80 | – | – | 82 | 82 | – | – | – | – |
| CCOc1ccc(Cc2ccc3c(c2)OCO3)cc1C [II, (3-Methyl-4-ethoxybenzyl)-3,4-methylenedioxybenzene] | – | – | – | 0 | – | – | – | – | 50 | 50 | 80 | – |
